# According to patent US9718835B2 (China Medical University Hospital, priority 2013, dated 2017):
# Target: T1, Topo I (Homo sapiens, UniProt P11387)
# T1 sequence (P11387 1-765): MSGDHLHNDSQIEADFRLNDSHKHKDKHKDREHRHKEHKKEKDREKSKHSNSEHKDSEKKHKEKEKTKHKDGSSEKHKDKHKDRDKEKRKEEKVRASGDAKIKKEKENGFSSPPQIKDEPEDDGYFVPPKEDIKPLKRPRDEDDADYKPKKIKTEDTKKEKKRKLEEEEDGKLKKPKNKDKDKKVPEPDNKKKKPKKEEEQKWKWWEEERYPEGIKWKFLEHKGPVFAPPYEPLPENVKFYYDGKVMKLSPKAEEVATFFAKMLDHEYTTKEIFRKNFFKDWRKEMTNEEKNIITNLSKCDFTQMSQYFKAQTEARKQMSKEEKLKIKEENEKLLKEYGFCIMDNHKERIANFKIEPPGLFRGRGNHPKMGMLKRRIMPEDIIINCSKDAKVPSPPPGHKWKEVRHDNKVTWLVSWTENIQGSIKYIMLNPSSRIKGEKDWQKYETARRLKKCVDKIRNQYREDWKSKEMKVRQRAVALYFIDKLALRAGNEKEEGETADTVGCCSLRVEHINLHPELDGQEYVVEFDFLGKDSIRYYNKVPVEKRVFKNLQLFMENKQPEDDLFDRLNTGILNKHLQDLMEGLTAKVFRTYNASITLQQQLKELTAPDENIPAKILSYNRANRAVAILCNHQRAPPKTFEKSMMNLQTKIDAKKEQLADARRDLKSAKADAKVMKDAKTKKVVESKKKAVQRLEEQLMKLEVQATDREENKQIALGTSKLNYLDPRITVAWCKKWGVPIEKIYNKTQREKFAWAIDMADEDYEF
# Test: Topo I activity assay, nuclear extracts of treated A-549 cells, supercoiled DNA
# Assay type: cell-based
# Parameters: Nuclear extracts from 9a-treated A-549 cells were incubated with supercoiled DNA (for Topo I); endogenous in cells; host or cells: A-549
# Description: First, we determined the effect of 9a on cell cycle distribution using flow cytometry analysis. […] Because it has been shown that 1-Topo I-DNA covalent complexes enhance the transcription-dependent degradation of Topo I via a 26S proteasome pathway,^32 the effects of 9a on the expression levels of Topo I and Topo II were investigated.
# Topo I activity test was performed using an assay kit (TopoGEN) according to the manufacturer's instructions. Nuclear extracts from 9a-treated A-549 cells were incubated with supercoiled DNA (for Topo I) or catenated kDNA (for Topo II) for 30 min at 37° C. Reaction mixture was separated by is 1% agarose gel in 1×TAE buffer. The gel was stained with ethidium bromide and photographed using Gel Doc XR (Bio-Rad).
smiles,measurement,value
CC[C@@]1(OC(=O)CNC(Cc2ccc(OC)cc2)=NS(=O)(=O)c2ccc(C)cc2)C(=O)OCc2c1cc1n(c2=O)Cc2cc3ccccc3nc2-1 [Compound 9a],Topo I-mediated relaxation of supercoiled DNA,inhibited the relaxation of supercoiled DNA
